This passage reports IC50 results from patent US20250248955A1, “PHENYL ACRYLIC ACID COMPOUND, AND PREPARATION METHOD AND APPLICATION THEREOF” (LONGIVITRON (SUZHOU) BIOTECHNOLOGY CO., LTD, priority 2022, published 2025).

This experiment has as its target ACAT1 (Homo sapiens (Human), UniProt P24752). The experiment in a line: ACAT1 small molecule inhibitor screening (enzyme activity, IC50). Type of experiment: biochemical. The conditions noted are these: summary of Table 1; unit given as mol/L. On the procedure:
ACAT1 can catalyze two molecules of acetyl coenzyme A to reversibly form acetoacetyl coenzyme A. Its activity was measured through the reaction between ACAT1-catalyzed substrate acetoacetyl-coenzyme A and coenzyme A, from which the product acetyl-coenzyme A is produced. Since acetoacetyl-coenzyme A is specifically absorbed in a specific spectrum, the impact on the enzyme activity of ACAT1 can be reflected through the detection of an increase or decrease of absorption in a specific spectrum.
ACAT1 recombinant proteins were expressed and purified by Escherichia coli, and the concentration of ACAT1 recombinant proteins obtained was 1 mg/mL. The buffers adopted for ACAT1 small molecule inhibitor screening were 50 mM Tris-HCl (pH 8.1), 20 mM MgCl2, and 40 mM KCl. In 200 μL of enzyme catalytic system, 1 μL of ACAT1 recombinant proteins, the substrate acetyl-coenzyme A whose final concentration was changed from 25 μM to 100 μM through a CPM probe, and small molecule inhibitors at different concentrations were added, respectively. The measurement was carried out through a microplate reader (Biotek Synergy H1) and using excitation light at 355 nm and emission light at 460 nm, and the IC50 of the inhibitors was calculated through software Prism 7.0.

Chain of ACAT1 (P24752 34-427): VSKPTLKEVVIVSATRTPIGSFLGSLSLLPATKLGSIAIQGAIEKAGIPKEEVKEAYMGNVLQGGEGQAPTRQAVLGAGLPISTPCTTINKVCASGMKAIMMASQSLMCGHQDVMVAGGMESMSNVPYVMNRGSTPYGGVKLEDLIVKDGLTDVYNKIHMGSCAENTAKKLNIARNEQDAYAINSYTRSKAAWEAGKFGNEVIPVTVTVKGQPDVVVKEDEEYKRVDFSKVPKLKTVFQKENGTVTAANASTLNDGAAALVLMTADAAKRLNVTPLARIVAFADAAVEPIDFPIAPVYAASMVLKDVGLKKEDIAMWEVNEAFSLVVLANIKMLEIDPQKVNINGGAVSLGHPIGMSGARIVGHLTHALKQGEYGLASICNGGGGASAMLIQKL

In general, IC50 refers to the midpoint of a concentration-inhibition curve. In the case of `COc1ccc(CCOc2ccc(NC(=O)/C=C/c3ccc(O)c(O)c3)cc2)cc1` [Compound M5], the IC50 was less than 100 µM.
For `Cc1ccc(CCOc2ccc(NC(=O)/C=C/c3ccc(O)c(O)c3)cc2)cc1` [Compound M7] the value was less than 100 µM.
As to `COc1ccc(CCOc2ccc(NC(=O)/C=C/c3ccc(O)c(O)c3)cc2)cc1OC` [Compound M9], the IC50 is less than 100 µM.
As for `COc1cc(CCOc2ccc(NC(=O)/C=C/c3ccc(O)c(O)c3)cc2)cc(OC)c1OC` [Compound M10], the figure is less than 100 µM; as for `COCOc1ccc(/C=C/C(=O)Nc2ccc(OCCc3ccc(OC)cc3)cc2)cc1OCOC` [Compound M12], less than 100 µM.
As for `COCOc1ccc(/C=C/C(=O)Nc2ccc(OCCc3cc(OC)c(OC)c(OC)c3)cc2)cc1OCOC` [Compound M17], the figure is less than 100 µM.
